Laboratory results as given in the supplement of paper PMC8671470.

Columns and labels:
Conditions in all cases: 72 h
[1] = test system: myeloid leukemia patient primary cells Pat.10; test: area under dose-response curve (viability, 1 nM-10 uM) (fraction (0-1)); higher = more sensitive
Procedure: (§1)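 AUC (0–1, higher = more sensitive) of the 5-point dose–response (1 nM–10 µM, 72 h, CellTiter-Glo) in primary AML/CML patient mononuclear cells. 0.030103 is the floor for inactive compounds.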

[2] = test system: myeloid leukemia patient primary cells Pat.11; test: as above
Procedure: as §1

[3] = test system: myeloid leukemia patient primary cells Pat.12; test: as above
Procedure: as §1

[4] = test system: myeloid leukemia patient primary cells Pat.13; test: as above
Procedure: as §1

[5] = test system: myeloid leukemia patient primary cells Pat.14; test: as above
Procedure: as §1

[6] = test system: myeloid leukemia patient primary cells Pat.15; test: as above
Procedure: as §1

[7] = test system: myeloid leukemia patient primary cells Pat.1; test: as above
Procedure: as §1

[8] = test system: myeloid leukemia patient primary cells Pat.2; test: as above
Procedure: as §1

[9] = test system: myeloid leukemia patient primary cells Pat.3; test: as above
Procedure: as §1

[10] = test system: myeloid leukemia patient primary cells Pat.4; test: as above
Procedure: as §1

[11] = test system: myeloid leukemia patient primary cells Pat.5; test: as above
Procedure: as §1

[12] = test system: myeloid leukemia patient primary cells Pat.6; test: as above
Procedure: as §1

[13] = test system: myeloid leukemia patient primary cells Pat.7; test: as above
Procedure: as §1

[14] = test system: myeloid leukemia patient primary cells Pat.8; test: as above
Procedure: as §1

[15] = test system: myeloid leukemia patient primary cells Pat.9; test: as above
Procedure: as §1

HL-60 = test: cell viability (% survival relative to DMSO control); higher = less cytotoxic
Procedure: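 8x8 drug-combination matrices (0-5000 nM; rosiglitazone and lestaurtinib 0-1000 nM) were run in HL-60 cells for 72 h with a CellTiter-Glo read-out. Survival is normalised to DMSO and 10 µM bortezomib and clipped at 100%. Bliss synergy was analysed in SynergyFinder.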

O=C(O)Cn1nnc(-c2cc(N3CCC(Oc4cc(F)ccc4Br)CC3)no2)n1 [MK-8245]
Conditions	area under dose-response curve
[1]	0.205
[2]	< 0.0301
[3]	< 0.0301
[4]	< 0.0301
[5]	< 0.0301
[6]	< 0.0301
[7]	< 0.0301
[8]	< 0.0301
[9]	0.0756
[10]	< 0.0301
[11]	0.0448
[12]	< 0.0301
[13]	< 0.0301
[14]	< 0.0301
[15]	< 0.0301

Oc1ccc(Nc2nc(-c3ccc(Cl)cc3)cs2)cc1 [SKI II]
Conditions	area under dose-response curve
[1]	0.291
[2]	< 0.0301
[3]	0.0339
[4]	0.0533
[5]	0.304
[6]	0.0495
[7]	0.054
[8]	0.0376
[9]	0.238
[10]	0.0605
[12]	0.0895
[13]	0.424
[14]	0.054
[15]	0.341

Cc1c(-c2ccc(-c3ccccc3F)cc2)nc2ccc(F)cc2c1C(=O)O [Brequinar]
Conditions	area under dose-response curve
[2]	< 0.0301
[3]	< 0.0301
[4]	< 0.0301
[5]	0.142
[6]	< 0.0301
[7]	< 0.0301
[8]	< 0.0301
[9]	0.588
[10]	< 0.0301
[11]	0.433
[12]	< 0.0301
[14]	< 0.0301
[15]	0.532

CC[C@@]1(O)C(=O)OCc2c1cc1n(c2=O)Cc2cc3c(CN(C)C)c(O)ccc3nc2-1 [Topotecan]
Conditions	area under dose-response curve
[1]	0.507
[2]	0.0826
[3]	0.0406
[4]	0.0753
[5]	0.231
[6]	0.225
[7]	0.0609
[8]	0.127
[9]	0.54
[10]	0.132
[11]	0.426
[12]	0.147
[13]	0.282
[14]	0.0586
[15]	0.245

CC(C)c1onc(-c2c(Cl)cccc2Cl)c1COc1ccc(/C=C/c2cccc(C(=O)O)c2)c(Cl)c1 [GW4064] + Cn1cc(-c2ccncc2)c(-c2ccc(OCc3ccc4ccccc4n3)cc2)n1 [PF-02545920]
cell viability [%], HL-60
Conditions	drug1 concentration 5 nM	drug1 concentration 10 nM	drug1 concentration 50 nM	drug1 concentration 100 nM	drug1 concentration 500 nM	drug1 concentration 1000 nM	drug1 concentration 5000 nM
drug2 concentration 5 nM	> 100	98.6	> 100	> 100	> 100	> 100	78.8
drug2 concentration 10 nM	> 100	> 100	> 100	> 100	97	> 100	89.8
drug2 concentration 50 nM	> 100	> 100	> 100	> 100	> 100	68.7	> 100
drug2 concentration 100 nM	81.7	> 100	88.4	76.3	> 100	> 100	53.4
drug2 concentration 500 nM	> 100	65.9	> 100	> 100	> 100	> 100	> 100
drug2 concentration 1000 nM	97.1	> 100	> 100	> 100	> 100	46.6	> 100
drug2 concentration 5000 nM	> 100	> 100	> 100	> 100	> 100	89.8	> 100
